According to patent US9346821B2, “Heterocyclic carboxylic acid ester derivative” (AJINOMOTO CO., INC., priority 2011, dated 2016):
pKi: −log10 of the molar value. Counter-ions that a name gives are not always drawn.

Key:
[1] = biological target: recombinant human enteropeptidase (Homo sapiens (Human), UniProt P98073); assay: Measurement of enteropeptidase inhibitory activity; assay type: biochemical; conditions: for pKi: recombinant human enteropeptidase, Gly-Asp-Asp-Asp-Asp-Lys-β-Naphtylamide substrate, Dixon plot
recombinant human enteropeptidase, sequence (P98073 whole entry): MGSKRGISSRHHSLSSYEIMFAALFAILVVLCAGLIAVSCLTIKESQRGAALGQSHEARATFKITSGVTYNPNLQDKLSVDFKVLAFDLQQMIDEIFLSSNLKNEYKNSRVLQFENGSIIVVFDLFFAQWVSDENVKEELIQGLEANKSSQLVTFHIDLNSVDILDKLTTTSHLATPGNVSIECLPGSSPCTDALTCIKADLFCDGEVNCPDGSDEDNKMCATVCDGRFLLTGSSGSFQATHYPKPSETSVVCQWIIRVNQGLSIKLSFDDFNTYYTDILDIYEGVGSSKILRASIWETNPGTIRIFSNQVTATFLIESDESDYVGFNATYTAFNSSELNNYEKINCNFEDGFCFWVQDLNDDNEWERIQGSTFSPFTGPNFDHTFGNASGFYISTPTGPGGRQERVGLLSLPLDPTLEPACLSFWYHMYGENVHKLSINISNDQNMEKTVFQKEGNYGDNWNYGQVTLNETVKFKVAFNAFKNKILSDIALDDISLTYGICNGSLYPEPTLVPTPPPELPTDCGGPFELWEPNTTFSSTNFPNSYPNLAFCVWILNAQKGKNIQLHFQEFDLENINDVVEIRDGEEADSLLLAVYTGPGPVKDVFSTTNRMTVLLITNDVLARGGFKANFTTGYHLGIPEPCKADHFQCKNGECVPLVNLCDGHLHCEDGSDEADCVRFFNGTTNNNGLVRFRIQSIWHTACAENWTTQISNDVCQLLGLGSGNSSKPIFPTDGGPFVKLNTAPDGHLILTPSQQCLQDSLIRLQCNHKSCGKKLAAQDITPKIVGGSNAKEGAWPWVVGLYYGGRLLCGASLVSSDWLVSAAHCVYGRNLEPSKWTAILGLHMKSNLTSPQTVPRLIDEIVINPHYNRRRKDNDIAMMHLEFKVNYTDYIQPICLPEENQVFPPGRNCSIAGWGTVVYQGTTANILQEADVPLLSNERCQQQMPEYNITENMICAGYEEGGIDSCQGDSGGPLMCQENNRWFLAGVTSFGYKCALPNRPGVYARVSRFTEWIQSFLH
Description: Measurement of Enteropeptidase Inhibitory Activity
Using a 96 well plate (#3915, Costar), a test compound (25 μL), 400 mM Tris-HCl buffer (pH 8.0, 25 μL) and 0.5 mg/mL fluorescence enzyme substrate (Gly-Asp-Asp-Asp-Asp-Lys-β-Naphtylamide, 25 μL) were mixed, and recombinant human enteropeptidase (R&D Systems, Inc., 25 μL) was added. Using a fluorescence plate reader fmax (Molecular Devices, Inc.), the reaction rate was measured from the time-course changes at excitation wavelength 320 nm and fluorescence wavelength 405 nm. The Ki value was calculated from the concentration of the test compound, reciprocal of reaction rate, and Km value of the enzyme substrate, and by using Dixon plot.

human trypsin = human trypsin (Homo sapiens, UniProt P07477); assay: Measurement of trypsin inhibitory activity; assay type: biochemical; conditions: for pKi: human trypsin, Boc-Phe-Ser-Arg-AMC substrate, Dixon plot
Description: Measurement of Trypsin Inhibitory Activity
Using a 96 well plate (#3915, Costar), a test compound (25 μL) was mixed with 20 μM fluorescence enzyme substrate (Boc-Phe-Ser-Arg-AMC, 50 μL) mixed with 200 mM Tris-HCl buffer (pH 8.0), and human trypsin (Sigma, 25 μL) was added. Using a fluorescence plate reader fmax (Molecular Devices, Inc.), the reaction rate was measured from the time-course changes at excitation wavelength 355 nm and fluorescence wavelength 460 nm. The Ki value was calculated from the concentration of the test compound, reciprocal of reaction rate, and Km value of the enzyme substrate, and by using Dixon plot.

KK-A^y/JCL mice = assay: Evaluation of antidiabetic action (Experimental Example 4); assay type: in vivo; conditions: mixed in feed for one week, versus control group
Excerpt: Evaluation of Antidiabetic Action KK-A^y/JCL mice (male, 5- to 7-week-old, CLEA Japan, Inc.) known to spontaneously develop obese type 2 diabetes were purchased and, after one week of preliminary rearing period, grouped (6 per group) with the body weight and non-fasting blood glucose levels as indices. The animals were individually housed in a polycarbonate cage and allowed to drink water freely from a watering bottle. […] CRF-1 alone was given to the control group. After one week of dosing period, the blood (6 μL) was drawn from the tail vein of the animals, and the blood glucose level was measured by ACCU-CHEK Aviva (Roche Diagnostics K.K.). A significant difference from the control group was detected by Dunnett's multiple comparison test or Student's t-test (significance level less than 5%).

| SMILES | pKi [1] | pKi (human trypsin) | hypoglycemic action (KK-A^y/JCL mice) | enteropeptidase inhibitory activity (in words) ([1]; summary statement) | trypsin inhibitory activity (in words) (human trypsin; summary statement) |
| --- | --- | --- | --- | --- | --- |
| N=C(N)c1ccc(OC(=O)c2ccc(CN3CCC[C@@H]3C(=O)N[C@@H](CC(=O)O)C(=O)O)s2)c(F)c1 [B-13] | 9.37 | 9.54 |  |  |  |
| C=CCN(C(=O)CN1CCc2cc(C(=O)Oc3ccc(C(=N)N)cc3F)sc2C1)[C@@H](CCC(=O)O)C(=O)O [B-45, N-allyl-N-({2-[(4-amidino-2-fluorophenoxy)carbonyl]-4,5-dihydrothieno[2,3-c]pyridin-6(7H)-yl}acetyl)-L-glutamic acid bis(trifluoroacetate)] | 9.21 | 9.15 |  |  |  |
| CC(C)[C@@H](C(=O)N[C@@H](CC(=O)O)C(=O)O)N(C)Cc1ccc(C(=O)Oc2ccc(C(=N)N)cc2)o1 [A-14, N—(N-{[5-(4-amidinophenoxycarbonyl)furan-2-yl]methyl}-N-methyl-L-valyl)-L-aspartic acid bis(trifluoroacetate)] | 9.25 | 9.35 |  |  |  |
| C=CCN(CC(=O)N[C@@H](CC(=O)O)C(=O)O)C(=O)CCc1ccc(C(=O)Oc2ccc(C(=N)N)cc2F)s1 [B-56, N—[N-allyl-N-(3-{5-[(4-amidino-2-fluorophenoxy)carbonyl]thiophen-2-yl}propanoyl)glycyl]-L-aspartic acid trifluoroacetate] | 9.11 | 9.37 |  |  |  |
| CC(C)C[C@@H](C(=O)N[C@@H](CC(=O)O)C(=O)O)N(C)Cc1ccc(C(=O)Oc2ccc(C(=N)N)cc2F)s1 [B-35] | 9.28 | 9.09 |  |  |  |
| N=C(N)c1ccc(OC(=O)c2ccc(Cn3cccc3C(=O)O)s2)c(F)c1 [B-42, N-{[5-(4-amidino-2-fluorophenoxycarbonyl)thiophen-2-yl]methyl}-1H-pyrrole-2-carboxylic acid trifluoroacetate] | 9.21 | 9.09 |  |  |  |
| N=C(N)c1ccc(OC(=O)c2ccc(CN3CCC[C@H]3C(=O)N[C@@H](CS(=O)(=O)O)C(=O)O)s2)c(F)c1 [B-10] | 9.62 | 9.60 |  |  |  |
| CN(Cc1ccc(C(=O)Oc2ccc(C(=N)N)cc2F)s1)[C@H](Cc1ccccc1)C(=O)N[C@H](CC(=O)O)C(=O)O [B-59, N—(N-{5-[(4-amidino-2-fluorophenoxy)carbonyl]thiophen-2-yl}methyl-N-methyl-D-phenylalanyl)-D-aspartic acid bis(trifluoroacetate)] | 9.01 | 8.48 |  |  |  |
| N=C(N)c1ccc2cc(OC(=O)c3ccc(CN4CCC[C@@H]4C(=O)N[C@@H](CS(=O)(=O)O)C(=O)O)o3)ccc2c1 [A-6] | 9.17 | 10.10 |  |  |  |
| N=C(N)c1ccc(OC(=O)c2cc3c(s2)CN(CC(=O)O)CC3)c(F)c1 [B-43, {2-[(4-amidino-2-fluorophenoxy)carbonyl]-4,5-dihydrothieno[2,3-c]pyridin-6(7H)-yl}acetic acid bis(trifluoroacetate)] | 9.16 | 9.25 |  |  |  |
| N=C(N)c1ccc(OC(=O)c2ccc(CN3CCC[C@@H]3C(=O)N[C@@H](CS(=O)(=O)O)C(=O)O)o2)cc1 [A-5] | 9.09 | 9.62 |  |  |  |
| N=C(N)c1ccc(OC(=O)c2ccc(CN3CCCC[C@H]3C(=O)N[C@@H](CC(=O)O)C(=O)O)s2)c(F)c1 [B-18] | 9.36 | 9.04 |  |  |  |
| N=C(N)c1ccc(OC(=O)c2ccc(CN3CCC[C@@H]3C(=O)N[C@@H](CS(=O)(=O)O)C(=O)O)s2)c(F)c1 [B-14] | 9.62 | 9.72 |  |  |  |
| N=C(N)c1ccc(OC(=O)c2ccc(CN3CCC[C@@H]3C(=O)N[C@@H](CS(=O)(=O)O)C(=O)O)s2)cc1 [B-12] | 9.02 | 8.94 |  |  |  |
| CC(C)N(Cc1ccc(C(=O)Oc2ccc(C(=N)N)cc2F)s1)C(=O)N[C@@H](CC(=O)O)C(=O)O [B-47] | 9.48 | 9.16 |  |  |  |
| N=C(N)c1ccc(OC(=O)c2ccc(CN3CSC[C@H]3C(=O)N[C@@H](CC(=O)O)C(=O)O)s2)c(F)c1 [B-20] | 9.82 | 9.68 |  |  |  |

| SMILES | pKi [1] | pKi (human trypsin) | hypoglycemic action (KK-A^y/JCL mice) | enteropeptidase inhibitory activity (in words) ([1]; summary statement) | trypsin inhibitory activity (in words) (human trypsin; summary statement) |
| --- | --- | --- | --- | --- | --- |
| N=C(N)c1ccc(OC(=O)c2ccc(CNC3(C(=O)N[C@@H](CC(=O)O)C(=O)O)CC3)s2)c(F)c1 [B-37, N-(1-{[5-(4-amidino-2-fluorophenoxycarbonyl)thiophen-2-yl]methylamino}cyclopropanecarbonyl)-L-aspartic acid bis(trifluoroacetate)] | 8.90 | 8.80 |  |  |  |
| C=CCN(CC(=O)O)C(=O)[C@@H]1CCCN1Cc1ccc(C(=O)Oc2ccc(C(=N)N)cc2F)s1 [B-11] | 9.11 | 9.19 |  |  |  |
| CN(Cc1ccc(C(=O)Oc2ccc(C(=N)N)cc2F)s1)C(=O)N[C@@H](CC(=O)O)C(=O)O [B-46] | 9.42 | 9.06 |  |  |  |
| CC(C)[C@H](C(=O)N[C@@H](CC(=O)O)C(=O)O)N(C)Cc1ccc(C(=O)Oc2ccc(C(=N)N)cc2F)s1 [B-27, N—(N-{[5-(4-amidino-2-fluorophenoxycarbonyl)thiophen-2-yl]methyl}-N-methyl-D-valyl)-L-aspartic acid bis(trifluoroacetate)] | 9.11 | 9.17 |  |  |  |
| CC(C)C[C@@H](C(=O)N[C@H](CCC(=O)O)C(=O)O)N(C)Cc1ccc(C(=O)Oc2ccc(C(=N)N)cc2F)s1 [B-36] | 9.21 | 9.05 |  |  |  |
| CC(C)N(Cc1ccc(C(=O)Oc2ccc(C(=N)N)cc2)o1)C(=O)N[C@@H](CC(=O)O)C(=O)O [A-21] | 9.42 | 9.08 |  |  |  |
| CC(C)[C@@H](C(=O)N[C@@H](CC(=O)O)C(=O)O)N(C)Cc1ccc(C(=O)Oc2ccc(C(=N)N)cc2F)s1 [B-23] | 9.12 | 9.36 |  |  |  |
| C=CCN(CC(=O)O)C(=O)[C@@H]1CSCN1Cc1ccc(C(=O)Oc2ccc(C(=N)N)cc2F)s1 [B-21] | 9.00 | 9.42 |  |  |  |
| N=C(N)c1ccc(OC(=O)c2ccc(CN3CCC[C@@H]3C(=O)N(CCC(=O)O)CC(=O)O)s2)c(F)c1 [B-60, N-{5-[(4-amidino-2-fluorophenoxy)carbonyl]thiophen-2-yl}methyl-D-proline N-(2-carboxyethyl)-N-carboxymethylamide bis(trifluoroacetate)] | 9.28 | 9.38 |  |  |  |
| CN(Cc1ccc(C(=O)Oc2ccc(C(=N)N)cc2)o1)C(=O)N[C@@H](CC(=O)O)C(=O)O [A-20] | 9.03 | 9.27 |  |  |  |
| N=C(N)c1ccc(OC(=O)c2ccc(CCC(=O)N[C@@H](CC(=O)O)C(=O)O)s2)c(F)c1.O=C(O)C(F)(F)F [reference compound A, N-{3-[5-(4-amidino-2-fluorophenoxycarbonyl)thiophen-2-yl]propanoyl}-L-aspartic acid trifluoroacetate, reference compound] | 8.87 |  | significant hypoglycemic action | superior | superior |
| CC(C)[C@@H](C(=O)N[C@@H](CCC(=O)O)C(=O)O)N(C)Cc1ccc(C(=O)Oc2ccc(C(=N)N)cc2F)s1 [B-26] | 9.00 | 9.42 |  |  |  |
| N=C(N)c1ccc(OC(=O)c2ccc(CN3CCC[C@@H]3C(=O)N[C@H](CC(=O)O)C(=O)O)s2)c(F)c1 [B-15] | 9.16 | 9.28 |  |  |  |
| CC(C)C[C@@H](C(=O)N[C@@H](CCC(=O)O)C(=O)O)N(C)Cc1ccc(C(=O)Oc2ccc(C(=N)N)cc2F)s1 [B-32] | 9.05 | 9.15 |  |  |  |
| N=C(N)c1ccc(OC(=O)c2cc3c(s2)CN(C(=O)N[C@@H](CC(=O)O)C(=O)O)CC3)c(F)c1 [B-55, N-{[2-(4-amidino-2-fluorophenoxycarbonyl)-4,5,6,7-tetrahydrothieno[2,3-c]pyridin-6-yl]carbonyl}-L-aspartic acid trifluoroacetate] | 9.70 | 9.62 |  |  |  |
| N=C(N)c1ccc(OC(=O)c2ccc(CN3CCC[C@H]3C(=O)N[C@@H](CS(=O)(=O)O)C(=O)O)o2)cc1 [A-10] | 9.19 | 9.01 |  |  |  |
